pIC50: −log10 of the molar value. Like-named read-outs stand apart in the source and are kept apart here.
Molecular target: T1, human SARM1(50-724) (Homo sapiens, UniProt Q6SZW1)
T1 construct: 40 nM human SARM1(50-724)
T1 sequence (Q6SZW1 50-724): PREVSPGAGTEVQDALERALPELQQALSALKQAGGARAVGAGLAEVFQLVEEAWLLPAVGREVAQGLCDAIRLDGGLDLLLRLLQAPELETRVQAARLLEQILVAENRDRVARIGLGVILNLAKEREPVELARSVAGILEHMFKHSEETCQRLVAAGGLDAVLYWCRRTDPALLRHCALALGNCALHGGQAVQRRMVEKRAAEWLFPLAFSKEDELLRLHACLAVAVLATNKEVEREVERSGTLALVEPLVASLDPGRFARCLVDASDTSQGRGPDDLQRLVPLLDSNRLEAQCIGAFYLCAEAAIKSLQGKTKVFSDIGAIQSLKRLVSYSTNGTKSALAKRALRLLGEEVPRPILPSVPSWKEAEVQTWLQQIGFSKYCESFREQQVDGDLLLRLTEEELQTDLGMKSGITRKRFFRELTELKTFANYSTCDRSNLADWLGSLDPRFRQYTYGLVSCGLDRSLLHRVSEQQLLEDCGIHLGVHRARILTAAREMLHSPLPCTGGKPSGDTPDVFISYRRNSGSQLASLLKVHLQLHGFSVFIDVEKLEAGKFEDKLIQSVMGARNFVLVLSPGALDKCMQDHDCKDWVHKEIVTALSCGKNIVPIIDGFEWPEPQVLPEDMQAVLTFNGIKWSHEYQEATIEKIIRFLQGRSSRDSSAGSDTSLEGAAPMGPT
Assay: SARM1 NADase biochemical assay (HPLC peak areas of NAD and NAM)
Settings: for pIC50: dose-response, 1:3 serial dilution from 100 μM, 40 nM SARM1, 0.3 mM NMN, 20 μM NAD, 60 min rt
Experimental: The reaction was incubated at room temperature for 60 minutes and quenched with 20 μL of 0.4% formic acid. […] Total run time for each sample was 4 minutes. […] Samples were run at a flow rate of 0.8 mL/min at 55° C. Peak areas of NAD and NAM were determined using OpenLAB CDS (Chem Station edition) software. For dose-response, the compound was diluted serially 1:3 in DMSO and added to the reaction starting at a final compound concentration of 100 μM in 1% DMSO.

[1] = 50 μM compound, NAD peak area, read-out: Avg NAD % inhibition at 50 μM
[2] = 50 μM compound, NAM peak area, read-out: Avg NAM % inhibition at 50 μM
[3] = read-out: Avg NAD % inhibition at 50 μM
[4] = read-out: Avg NAM % inhibition at 50 μM

| Molecule | inhibition at 50 µM [1] | inhibition at 50 µM [2] | pIC50 | other results |
| --- | --- | --- | --- | --- |
| Cc1cc(C(=O)Nc2ccn(Cc3ccncc3)n2)cs1 [Example 67, 5-Methyl-N-(1-(pyridin-4-ylmethyl)-1H-pyrazol-3-yl)thiophene-3-carboxamide] | 51 to 100% | 0 to 50% |  |  |
| O=C(Nc1ccn(Cc2ccncc2)n1)c1ccccc1 [Example 69, N-(1-(Pyridin-4-ylmethyl)-1H-pyrazol-3-yl)benzamide] |  |  |  | inhibition at 50 µM [3]: 51 to 100%; inhibition at 50 µM [4]: 51 to 100% |
| O=S(=O)(Nc1ccn(Cc2ccncc2)n1)c1ccccc1 [Example 70, N-(1-(Pyridin-4-ylmethyl)-1H-pyrazol-3-yl)benzenesulfonamide] |  |  |  | inhibition at 50 µM [3]: 51 to 100%; inhibition at 50 µM [4]: 51 to 100% |
| COc1ccc(S(=O)(=O)N(C)c2ccn(Cc3ccncc3)n2)cc1 [Example 75, 4-Methoxy-N-methyl-N-(1-(pyridin-4-ylmethyl)-1H-pyrazol-3-yl)benzenesulfonamide] |  |  |  | inhibition at 50 µM [3]: 0 to 50%; inhibition at 50 µM [4]: 0 to 50% |
| O=S(=O)(Nc1ccn(Cc2ccncc2)n1)c1cccc(F)c1 [Example 76, 3-Fluoro-N-(1-(pyridin-4-ylmethyl)-1H-pyrazol-3-yl)benzenesulfonamide] | 0 to 50% | 0 to 50% | 5.00 to 6.00 |  |
| CN(c1ccn(Cc2ccncc2)n1)S(=O)(=O)c1cccc(F)c1 [Example 77, 3-Fluoro-N-methyl-N-(1-(pyridin-4-ylmethyl)-1H-pyrazol-3-yl)benzenesulfonamide] |  |  |  | inhibition at 50 µM [3]: 0 to 50%; inhibition at 50 µM [4]: 0 to 50% |
| CCNc1ccn(Cc2ccncc2)n1 [Example 85, N-Ethyl-1-(pyridin-4-ylmethyl)-1H-pyrazol-3-amine] |  |  |  | inhibition at 50 µM [3]: 0 to 50%; inhibition at 50 µM [4]: 0 to 50% |
| CC(=O)Nc1ccn(Cc2ccncc2)n1 [Example 87, N-(1-(Pyridin-4-ylmethyl)-1H-pyrazol-3-yl)acetamide] |  |  |  | inhibition at 50 µM [3]: 0 to 50%; inhibition at 50 µM [4]: 0 to 50% |
| O=S(=O)(Nc1ccn(Cc2ccncc2)n1)C(F)(F)F [Example 88, 1,1,1-Trifluoro-N-(1-(pyridin-4-ylmethyl)-1H-pyrazol-3-yl)methanesulfonamide] | 0 to 50% | 0 to 50% |  |  |
| FCCNc1ccn(Cc2ccncc2)n1 [Example 96, N-(2-Fluoroethyl)-1-(pyridin-4-ylmethyl)-1H-pyrazol-3-amine] |  |  |  | inhibition at 50 µM [3]: 51 to 100%; inhibition at 50 µM [4]: 51 to 100% |
| FC(F)Cc1ccn(Cc2ccncc2)n1 [Example 102, 4-{[3-(2,2-Difluoroethyl)-1H-pyrazol-1-yl]methyl}pyridine] |  |  | 5.00 to 6.00 |  |
| (R)-2-(1-(1-(pyridin-4-yl)ethyl)-1H-pyrazol-3-yl)acetonitrile and (S)-2-(1-(1-(pyridin-4-yl)ethyl)-1H-pyrazol-3-yl)acetonitrile [Example 28] |  |  | 5.00 to 6.00 |  |
| (R)-2-((1-(1-(Pyridin-4-yl)ethyl)-1H-pyrazol-3-yl)amino)acetonitrile and (S)-2-((1-(1-(pyridin-4-yl)ethyl)-1H-pyrazol-3-yl)amino)acetonitrile [Example 6] |  |  | 5.00 to 6.00 |  |

Now from value to molecule, other results behind:

| inhibition at 50 µM [1] | inhibition at 50 µM [2] | pIC50 | Molecule | other results |
| --- | --- | --- | --- | --- |
| 51 to 100% | 51 to 100% | 4.00 to 5.00 | O=C(Nc1ccn(Cc2ccncc2)n1)c1cc(Br)cs1 [Example 65, 4-Bromo-N-(1-(pyridin-4-ylmethyl)-1H-pyrazol-3-yl)thiophene-2-carboxamide] |  |
|  |  | 5.00 to 6.00 | O=C(Nc1ccn(Cc2ccncc2)n1)c1csc(Cl)c1 [Example 66, 5-Chloro-N-(1-(pyridin-4-ylmethyl)-1H-pyrazol-3-yl)thiophene-3-carboxamide] |  |
|  |  | 4.00 to 5.00 | O=C(Nc1ccn(Cc2ccncc2)n1)C(F)(F)F [Example 68, 2,2,2-Trifluoro-N-(1-(pyridin-4-ylmethyl)-1H-pyrazol-3-yl)acetamide] |  |
| 0 to 50% | 0 to 50% |  | O=S(=O)(Cc1ccccc1)Nc1ccn(Cc2ccncc2)n1 [Example 71, 1-Phenyl-N-(1-(pyridin-4-ylmethyl)-1H-pyrazol-3-yl)methanesulfonamide] |  |
| 0 to 50% | 0 to 50% |  | CC1(C)Oc2ccc(C(=O)Nc3ccn(Cc4ccncc4)n3)cc2O1 [Example 72, 2,2-Dimethyl-N-(1-(pyridin-4-ylmethyl)-1H-pyrazol-3-yl)benzo[d][1,3]dioxole-5-carboxamide] |  |
| 51 to 100% |  |  | O=C(Nc1ccn(Cc2ccncc2)n1)c1ccc(O)c(O)c1 [Example 73, 3,4-Dihydroxy-N-(1-(pyridin-4-ylmethyl)-1H-pyrazol-3-yl)benzamide] |  |
|  |  | 5.00 to 6.00 | COc1ccc(S(=O)(=O)Nc2ccn(Cc3ccncc3)n2)cc1 [Example 74, 4-Methoxy-N-(1-(pyridin-4-ylmethyl)-1H-pyrazol-3-yl)benzenesulfonamide] |  |
|  |  | 4.00 to 5.00 | Cc1cc(Cc2ccncc2)nn1CC(F)(F)F [Example 83, 4-((5-Methyl-1-(2,2,2-trifluoroethyl)-1H-pyrazol-3-yl)methyl)pyridine] |  |
|  |  | 4.00 to 5.00 | Cc1cnccc1Cn1ccc(NCC(F)(F)F)n1 [Example 84, 1-((3-Methylpyridin-4-yl)methyl)-N-(2,2,2-trifluoroethyl)-1H-pyrazol-3-amine] |  |
| 0 to 50% | 0 to 50% |  | CNc1ccn(Cc2ccncc2)n1 [Example 86, N-Methyl-1-(pyridin-4-ylmethyl)-1H-pyrazol-3-amine] |  |
|  |  | 4.00 to 5.00 | C[C@H](c1ccncc1)n1ccc(NCC(F)(F)F)n1 [Example 89, (R)-1-(1-(Pyridin-4-yl)ethyl)-N-(2,2,2-trifluoroethyl)-1H-pyrazol-3-amine] |  |
|  |  | 4.00 to 5.00 | CN(CC(F)(F)F)c1ccn(Cc2ccncc2)n1 [Example 90, N-Methyl-1-(pyridin-4-ylmethyl)-N-(2,2,2-trifluoroethyl)-1H-pyrazol-3-amine] |  |
| 0 to 50% | 0 to 50% |  | c1cc(Cn2ccc(NCC3CC3)n2)ccn1 [Example 93, N-(Cyclopropylmethyl)-1-(pyridin-4-ylmethyl)-1H-pyrazol-3-amine] |  |
| 0 to 50% | 0 to 50% |  | CCCNc1ccn(Cc2ccncc2)n1 [Example 94, N-Propyl-1-(pyridin-4-ylmethyl)-1H-pyrazol-3-amine] |  |
| 0 to 50% | 0 to 50% |  | c1cc(Cn2ccc(NCC3CCC3)n2)ccn1 [Example 95, N-(Cyclobutylmethyl)-1-(pyridin-4-ylmethyl)-1H-pyrazol-3-amine] |  |
| 0 to 50% | 0 to 50% |  | c1cc(Cn2ccc(NC3CCC3)n2)ccn1 [Example 97, N-Cyclobutyl-1-(pyridin-4-ylmethyl)-1H-pyrazol-3-amine] |  |
| 0 to 50% | 0 to 50% |  | c1cc(Cn2ccc(NC3CC3)n2)ccn1 [Example 98, N-Cyclopropyl-1-(pyridin-4-ylmethyl)-1H-pyrazol-3-amine] |  |
|  |  | 5.00 to 6.00 | FC(F)(F)C(F)(F)c1ccn(Cc2ccncc2)n1 [Example 103, 4-{[3-(1,1,2,2,2-Pentafluoroethyl)-1H-pyrazol-1-yl]methyl}pyridine] |  |
| 0 to 50% | 0 to 50% |  | O=C(CCc1ccc(Cl)cc1)Nc1ccn(Cc2ccncc2)n1 [Example 106, 3-(4-Chlorophenyl)-N-{1-[(pyridin-4-yl)methyl]-1H-pyrazol-3-yl}propanamide] |  |
|  |  | 5.00 to 6.00 | Cc1cnccc1Cn1ccc(CC(F)(F)F)n1 [Example 109, 3-Methyl-4-{[3-(2,2,2-trifluoroethyl)-1H-pyrazol-1-yl]methyl}pyridine] |  |
